Source: the supplement of paper PMC4862054

What was measured:
Details in all cases: incubation time: 72 h
[1] = test system: CAL-148; assay: normalised response (% of control), CellTiter-Glo; higher = more viable cells (100 = DMSO, 0 = benzethonium chloride kill control)
Experimental: (§1)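 DSRT, 72 h incubation, CellTox Green / CellTiter-Glo readout. Signal is normalised to DMSO and benzethonium chloride controls. Value is the normalised response at dose 3.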

[2] = test system: HDQ-P1; assay: as above
Experimental: as §1

[3] = test system: MDA-MB-453; assay: as above
Experimental: as §1

[4] = test system: CAL-85-1; assay: as above
Experimental: as §1

[5] = test system: MCF-10A; assay: as above
Experimental: as §1

[6] = test system: MDA-MB-468; assay: as above
Experimental: as §1

[7] = test system: CAL-120; assay: as above
Experimental: as §1

[8] = test system: SK-BR-3; assay: as above
Experimental: as §1

[9] = test system: BT-474; assay: as above
Experimental: as §1

[10] = test system: CAL-51; assay: as above
Experimental: as §1

[11] = test system: Hs578T; assay: as above
Experimental: as §1

[12] = test system: HCC1937; assay: as above
Experimental: as §1

[13] = test system: MDA-MB-436; assay: as above
Experimental: as §1

[14] = test system: MDA-MB-231; assay: as above
Experimental: as §1

[15] = test system: BT-549; assay: as above
Experimental: as §1

[16] = test system: DU-4475; assay: as above
Experimental: as §1

[17] = test system: MFM-223; assay: as above
Experimental: as §1

[18] = test system: HCC1599; assay: as above
Experimental: as §1

[19] = test system: HCC1143; assay: as above
Experimental: as §1

[20] = test system: CAL-148; assay: normalised response (% of control), CellTox Green; higher = less cell death (100 = DMSO, 0 = benzethonium chloride kill control)
Summary of the method: (§2)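 Two readouts were taken after 72 h: CellTox Green fluorescence (485/520 nm) first, then CellTiter-Glo luminescence after 10 min at room temperature. Breast cancer cell lines had been seeded as 20 µl suspension into 384-well plates holding compound at 5 concentrations in 10-fold steps across a compound-specific 10,000-fold range. Each value is a normalised signal at a single concentration, with plates scaled to 0.1 % DMSO (100) and a positive kill control (0).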

[21] = test system: MDA-MB-453; assay: as above
Summary of the method: as §2

[22] = test system: CAL-85-1; assay: as above
Summary of the method: as §2

[23] = test system: MCF-10A; assay: as above
Summary of the method: as §2

[24] = test system: MDA-MB-468; assay: as above
Summary of the method: as §2

[25] = test system: CAL-120; assay: as above
Summary of the method: as §2

[26] = test system: BT-474; assay: as above
Summary of the method: as §2

[27] = test system: CAL-51; assay: as above
Summary of the method: as §2

[28] = test system: MDA-MB-436; assay: as above
Summary of the method: as §2

[29] = test system: MDA-MB-231; assay: as above
Summary of the method: as §2

[30] = test system: BT-549; assay: as above
Summary of the method: as §2

[31] = test system: DU-4475; assay: as above
Summary of the method: as §2

[32] = test system: MFM-223; assay: as above
Summary of the method: as §2

[33] = test system: HCC1599; assay: as above
Summary of the method: as §2

[34] = test system: HCC1143; assay: as above
Summary of the method: as §2

[35] = test system: HDQ-P1; assay: as above
Summary of the method: as §2

[36] = test system: Hs578T; assay: as above
Summary of the method: as §2

[37] = test system: HCC1937; assay: as above
Summary of the method: as §2

[38] = test system: CAL-148; assay: normalised response (% of control), CellTiter-Glo; higher = more viable cells (100 = DMSO, 0 = benzethonium chloride kill control); remark: listed apart in the source
Experimental: (§3)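 DSRT, 72 h incubation, CellTox Green / CellTiter-Glo readout. Signal is normalised to DMSO and benzethonium chloride controls. Value is the normalised response at the highest dose.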

[39] = test system: HDQ-P1; assay: as above; remark: listed apart in the source
Experimental: as §3

[40] = test system: MDA-MB-453; assay: as above; remark: listed apart in the source
Experimental: as §3

[41] = test system: CAL-85-1; assay: as above; remark: listed apart in the source
Experimental: as §3

[42] = test system: MCF-10A; assay: as above; remark: listed apart in the source
Experimental: as §3

[43] = test system: MDA-MB-468; assay: as above; remark: listed apart in the source
Experimental: as §3

[44] = test system: CAL-120; assay: as above; remark: listed apart in the source
Experimental: as §3

[45] = test system: SK-BR-3; assay: as above; remark: listed apart in the source
Experimental: as §3

[46] = test system: BT-474; assay: as above; remark: listed apart in the source
Experimental: as §3

[47] = test system: CAL-51; assay: as above; remark: listed apart in the source
Experimental: as §3

[48] = test system: Hs578T; assay: as above; remark: listed apart in the source
Experimental: as §3

[49] = test system: HCC1937; assay: as above; remark: listed apart in the source
Experimental: as §3

[50] = test system: MDA-MB-436; assay: as above; remark: listed apart in the source
Experimental: as §3

[51] = test system: MDA-MB-231; assay: as above; remark: listed apart in the source
Experimental: as §3

[52] = test system: BT-549; assay: as above; remark: listed apart in the source
Experimental: as §3

[53] = test system: DU-4475; assay: as above; remark: listed apart in the source
Experimental: as §3

[54] = test system: MFM-223; assay: as above; remark: listed apart in the source
Experimental: as §3

[55] = test system: HCC1599; assay: as above; remark: listed apart in the source
Experimental: as §3

[56] = test system: HCC1143; assay: as above; remark: listed apart in the source
Experimental: as §3

Row | SMILES | normalised response [20] | normalised response [21] | normalised response [22] | normalised response [23] | normalised response [24] | normalised response [25] | normalised response [26] | normalised response [27] | normalised response [28] | normalised response [29] | normalised response [30] | normalised response [31] | normalised response [32] | normalised response [33] | normalised response [34] | normalised response [35] | normalised response [36] | normalised response [37] | normalised response [38] | normalised response [39] | also measured
1 | CC(C)N(CCCNC(=O)Nc1ccc(C(C)(C)C)cc1)C[C@H]1O[C@@H](n2cc(Br)c3c(N)ncnc32)[C@H](O)[C@@H]1O [SGC0946] (100 nM) | 100% | 99.1% | 103% | 99% | 108% | 95.6% | 98.2% | 95.6% | 95.2% | 73.8% | 101% | 98.8% | 97.4% | 96.4% | 88.1% | – | – | – | – | – | normalised response [1]: 86.6%; normalised response [2]: 93%; normalised response [3]: 91%; normalised response [4]: 102%; normalised response [5]: 96%; normalised response [6]: 93.8%; normalised response [7]: 101%; normalised response [8]: 90%; normalised response [9]: 96%; normalised response [10]: 91.1%; normalised response [11]: 88.5%; normalised response [12]: 94.4%; normalised response [13]: 99.4%; normalised response [14]: 96%; normalised response [15]: 91.3%; normalised response [16]: 98%; normalised response [17]: 95.2%; normalised response [18]: 93.7%; normalised response [19]: 101%
2 | O=C(NC[C@H](O)CO)c1ccncc1Nc1ccc(I)cc1F [Pimasertib] (10000 nM) | 99.6% | 112% | 51.5% | 95.4% | 169% | 72.1% | 88.3% | 93.8% | 100% | 70.1% | 125% | 72.9% | 64.9% | 105% | 124% | 81.8% | 105% | 91% | 71.6% | 55.1% | normalised response [40]: 89.2%; normalised response [41]: 40.8%; normalised response [42]: 26.6%; normalised response [43]: 53.5%; normalised response [44]: 65.4%; normalised response [45]: 58.6%; normalised response [46]: 53%; normalised response [47]: 90.2%; normalised response [48]: 64.6%; normalised response [49]: 68.1%; normalised response [50]: 79.7%; normalised response [51]: 54%; normalised response [52]: 84.2%; normalised response [53]: 0.07%; normalised response [54]: 63%; normalised response [55]: 89.8%; normalised response [56]: 79.1%
3 | Cc1c(Cn2c(C)nc3c(C(=O)O)cc(N4CCOCC4)cc32)cccc1C(F)(F)F (10000 nM) | 77.8% | 94.8% | 78.3% | 108% | 174% | 106% | 100% | 90.7% | 96.6% | 110% | 101% | 102% | 82.5% | 108% | 115% | 112% | 120% | 114% | 114% | 100% | normalised response [40]: 94.1%; normalised response [41]: 97.3%; normalised response [42]: 111%; normalised response [43]: 69.4%; normalised response [44]: 100%; normalised response [45]: 98.3%; normalised response [46]: 94.5%; normalised response [47]: 64.9%; normalised response [48]: 97.6%; normalised response [49]: 92.1%; normalised response [50]: 86.2%; normalised response [51]: 96.1%; normalised response [52]: 85.4%; normalised response [53]: 97%; normalised response [54]: 102%; normalised response [55]: 97.5%; normalised response [56]: 106%
4 | CC(=O)OC[C@H]1O[C@@H]([S-])[C@H](OC(C)=O)[C@@H](OC(C)=O)[C@@H]1OC(C)=O.CCP(CC)CC.[Au+] [Auranofin] (2500 nM) | 60.1% | 28.8% | -5.72% | 76.2% | -35.6% | 68.4% | 48.5% | 71% | 84.1% | 13.3% | -11.2% | 91% | 56.2% | 96.3% | 73.2% | -37% | 79.6% | 1.35% | 41.8% | 11.1% | normalised response [40]: 1.5%; normalised response [41]: 4.51%; normalised response [42]: 37.9%; normalised response [43]: 0.33%; normalised response [44]: 49.8%; normalised response [45]: 34.3%; normalised response [46]: 47.9%; normalised response [47]: 9.42%; normalised response [48]: 19.1%; normalised response [49]: 1.72%; normalised response [50]: 22.4%; normalised response [51]: 8.02%; normalised response [52]: 0.2%; normalised response [53]: 32.6%; normalised response [54]: 21.9%; normalised response [55]: 39.1%; normalised response [56]: 31.8%
5 | O=C1c2c(O)ccc(O)c2C(=O)c2c(NCCNCCO)ccc(NCCNCCO)c21 [Mitoxantrone] (10 nM) | – | 107% | 96.2% | 107% | 129% | 101% | 101% | 104% | 93.1% | 104% | 94.3% | 99.9% | 97.3% | 96.5% | 111% | – | – | 91.8% | – | – | normalised response [1]: 98.6%; normalised response [2]: 106%; normalised response [3]: 99.3%; normalised response [4]: 97.8%; normalised response [5]: 96.2%; normalised response [6]: 95.6%; normalised response [7]: 104%; normalised response [8]: 89.1%; normalised response [9]: 96.1%; normalised response [10]: 93.5%; normalised response [11]: 102%; normalised response [12]: 101%; normalised response [13]: 92.7%; normalised response [14]: 99.8%; normalised response [15]: 96.7%; normalised response [16]: 95.8%; normalised response [17]: 94%; normalised response [18]: 97.2%; normalised response [19]: 104%
